Source: publication PMC546277 (Arthritis Research & Therapy, 2004)

Target: IGFBP-3 (recombinant human IGF-binding protein 3, rhIGFBP-3) (Homo sapiens, UniProt P17936)
Sequence (P17936 28-291): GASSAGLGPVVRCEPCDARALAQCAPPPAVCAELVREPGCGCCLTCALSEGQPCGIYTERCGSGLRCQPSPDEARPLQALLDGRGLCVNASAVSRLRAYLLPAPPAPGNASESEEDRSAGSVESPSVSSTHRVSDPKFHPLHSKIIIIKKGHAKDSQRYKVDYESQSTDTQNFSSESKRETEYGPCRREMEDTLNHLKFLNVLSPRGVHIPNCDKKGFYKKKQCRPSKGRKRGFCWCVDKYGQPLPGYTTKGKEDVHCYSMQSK
Sequence (P05019 49-118 partner): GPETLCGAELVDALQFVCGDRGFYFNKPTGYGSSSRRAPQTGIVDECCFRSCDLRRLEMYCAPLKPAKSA

IC50: 2 nM
Compound: O=C(O)c1cc2cc(O)c(O)cc2c(C(=O)c2ccc(O)c(O)c2)n1 [NBI-31772, 1-(3,4-dihydroxybenzoyl)-3-hydroxycarbonyl-6,7-dihydroxyisoquinoline]
